The record followed here is patent US20250163057A1, “DCN-1 MODULATING COMPOUNDS AND METHODS OF USE THEREOF” (Cellarity, Inc., priority 2023, published 2025).

The target in data set [1] is DCN2 (DCUND2) protein PONY domain (Homo sapiens (Human), UniProt Q6PH85). As to the kind of experiment: Measurement of Kinact/KI in the DCN2 TR-FRET Assay. It is filed as binding. The note with it: for kinact/KI: read-out: Kinact/KI (converted); for Ki / kinact: time-dependent IC50 over 24 hrs; for kinact: read-out: Kinact (converted). How it is done: A TR-FRET Assay was performed to evaluate the ability of the compounds to bind DCN-2.
Chain of DCN2 (DCUND2) protein PONY domain (Q6PH85 60-248): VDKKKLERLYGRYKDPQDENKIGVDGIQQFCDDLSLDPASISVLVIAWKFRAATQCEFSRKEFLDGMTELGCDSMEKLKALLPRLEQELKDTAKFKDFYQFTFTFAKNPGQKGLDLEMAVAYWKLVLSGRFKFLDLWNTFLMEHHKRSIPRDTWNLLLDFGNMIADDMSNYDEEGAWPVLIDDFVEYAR
The time resolved—Forster's resonance energy transfer (TR-FRET) assay was designed following the protocol established in (Scott et al., Nat Chem Biol. 2017 August; 13(8): 850-857). A recombinant form of the DCN2 (DCUND2) protein PONY domain was produced using an E. coli expression system at Viva Biotech China. The DCN2 protein was biotinylated (EZ sulfo-NHS-LC-biotin; Thermofisher) for labeling with 2.5 nM streptavidin terbium (Tb) cryptate in the reaction. The probe was changed to a non-covalent DCN1 inhibitor labeled with carboxyfluorescein (FAM; Zhou et al, Nat Commun. 2017; 8: 1150). Buffer conditions were modified to enhance protein stability by replacing TritonX with 0.05% Tween20 and increasing NaCl to 200 mM. The compounds were screened against 0.31 nM DCN1 and 40 nM FAM-labeled probe in a 40 ul reaction volume. The TR-FRET ratio between Tb-DCN1 and the FAM-labeled probe was measured in a 384-well opti-plate (Perkin Elmer) using a plate reader (BMG) at after treatment with compound (final DMSO concentration of 0.1%). The ratio was normalized to the high (DCN1 and FAM-probe) and low (DCN1 and no probe) controls for a readout of % activity (=100*(x−low)/(high−low)).
The Kinact and KI measurements were taken to allow for continuous reads over 24 hrs. Plates were read every 5 min up to 1 hr, every 15 min up to 5 hr, and every hour up to […]. Kinact and KI were calculated based on the following equations (Krippendorff B F, et al. Mechanism-based inhibition: deriving K(I) and k(inact) directly from time-dependent IC(50) values. J BiomolScreen. 2009; Mons E et al. A Comprehensive Guide for Assessing Covalent Inhibition in Enzymatic Assays Illustrated with Kinetic Simulations. CurrProtoc. 2022) where the KM of the probe against DCN2 is 21.62 nM. The Kinact and KI values could be estimated from the tight curves of the IC50 values over time.

The target of data set [2] is DCN1 (DCUND1) protein PONY domain (Homo sapiens (Human), UniProt Q96GG9). As to the kind of experiment: Off-rate measurement of reversible covalent molecules (jump dilution TR-FRET with Cy5 probe). It is filed as binding. The note with it: for Category: binding mode category from off-rate assay; for residence time: inverse of rate constant K; for residence time / half-life: jump dilution TR-FRET; for koff: jump dilution, Cy5 covalent probe 150 nM, TR-FRET; for half-life: ln(2)/K. The text has this:
A typical covalent compound is assumed to stay bound to a protein for at least the life of that protein in the cell. In reality, there is a range of how long a covalent compounds remains bound before a reverse reaction takes place. Thus, some covalent bonds can be labeled as reversible as their reverse reaction takes place in a measurable amount of time under physiological conditions. The assay capitalizes on the range of covalent binders by using a high affinity covalent binder as a probe to displace the more reversible binders in an adaptation of the jump dilution method.
In this version of the jump dilution method, the increase in covalent probe binding over time was measured through a TR-FRET reaction between the covalent probe and the biotinylated target protein.
The recombinant form of the DCN1 (DCUND1) protein PONY domain was produced using an E. coli expression system at Viva Biotech (China). The DCN1 protein was biotinylated (EZ sulfo-NHS-LC-biotin; Thermofisher) for labeling with streptavidin terbium (Tb) cryptate in the reaction. This biotinylated protein was used in two forms of the TR-FRET assay as described below.
The off-rate measurement is executed in two steps based on the jump dilution method. […] The greatest dilution allowed within the constraints of the assay was chosen. These factors allow a competitive advantage for the covalent probe to replace the test compound when that compound releases from the target protein. The actual measure is the rate of increased TR-FRET signal as the covalent probe replaces the test compound over time. […] The resulting time dependent curve of the TR-FRET signal is fit to the following equation:
Y=Y0+(Plateau−Y0)*(1−exp(−K*x))
K is the rate constant (1/unit of time). The residence time is defined as the inverse of K, the rate constant. The half-life is calculated as ln(2)/K.
On the technique in general: TR-FRET usually uses a lanthanide donor and a delayed reading to cut background.

The structures appear in SMILES notation.

Chain of DCN1 (DCUND1) protein PONY domain (Q96GG9 60-248): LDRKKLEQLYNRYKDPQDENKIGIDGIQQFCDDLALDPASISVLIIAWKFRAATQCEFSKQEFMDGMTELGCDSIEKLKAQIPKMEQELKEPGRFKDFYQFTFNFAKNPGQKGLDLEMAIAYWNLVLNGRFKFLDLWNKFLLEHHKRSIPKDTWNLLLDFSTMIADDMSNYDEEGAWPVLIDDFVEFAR

Consider `CCc1cccc(C(=O)N[C@@H]2C(=O)N(CC)c3c(c(C(=O)N4[C@H](C#N)C[C@H]5C[C@H]54)nn3C3CCOCC3)[C@@H]2C2CC2)c1` [Compound I-552, N-((4S,5S)-3-((1R,3S,5R)-3-cyano-2-azabicyclo[3.1.0]hexane-2-carbonyl)-4-cyclopropyl-7-ethyl-6-oxo-1-(tetrahydro-2H-pyran-4-yl)-4,5,6,7-tetrahydro-1H-pyrazolo[3,4-b]pyridin-5-yl)-3-ethylbenzamide], for which, in data set [1], the kinact/KI is 333000 M⁻¹ s⁻¹, the Ki came to 0.017 µM and the kinact (commonly the rate constant of inactivation at saturating inhibitor) was 0.00566 s⁻¹. Besides, in data set [2], the Category result is on record as “reversible covalent”; the residence time turned out to be 224 min; the koff – broadly, the first-order rate constant of dissociation – is 7.5e-05 s⁻¹; the half-life (usually how long it takes for the measured level to halve) amounted to 2.593 h.
For `CCN1C(=O)[C@@H](NC(=O)c2cccc(C(F)(F)F)c2)[C@@H](C2CC2)c2c(C(=O)N3C[C@H](OC)C[C@H]3C#N)nn(C3CCOCC3)c21` [Compound I-377], in data set [1], the kinact/KI was 21700 M⁻¹ s⁻¹, the Ki was found to be 0.161 µM and the kinact was 0.00354 s⁻¹.
As for `CCN1C(=O)[C@@H](NC(=O)c2cccc(C(F)(F)F)c2)[C@@H](c2ccc(F)cc2)c2c(C(=O)N(C)[C@H](C#N)CCN(C)C)nn(C3CCOCC3)c21` [Compound I-370], in data set [1], the kinact/KI was 107000 M⁻¹ s⁻¹, the Ki was 0.000488 µM and the kinact was 5.17e-05 s⁻¹. For the same compound, in data set [2], the Category result is reported as “fast reversible”, the residence time worked out at 78.6 min, the koff was 0.000212 s⁻¹ and the half-life was determined as 0.908 h.
Turning to `CCN1C(=O)[C@@H](NC(=O)c2cccc(C(F)(F)F)c2)[C@@H](c2ccc(F)cc2)c2c(C(=O)N3CCNC[C@H]3C#N)nn(C3CCOCC3)c21` [Compound I-363, N-((4S,5S)-3-((S)-2-cyanopiperazine-1-carbonyl)-7-ethyl-4-(4-fluorophenyl)-6-oxo-1-(tetrahydro-2H-pyran-4-yl)-4,5,6,7-tetrahydro-1H-pyrazolo[3,4-b]pyridin-5-yl)-3-(trifluoromethyl)benzamide], in data set [1], the kinact/KI was 263000 M⁻¹ s⁻¹, the Ki was 0.0174 µM and the kinact is 0.00459 s⁻¹. The Category result in data set [2] is on record as “slow reversible”.
Take `CCN1C(=O)[C@@H](NC(=O)c2cccc(C(F)(F)F)c2)[C@@H](c2ccc(F)cc2)c2c([C@@H](C)NC#N)nn(-c3ccccc3)c21` [Compound I-73, N-((4S,5S)-3-((R)-1-cyanamidoethyl)-7-ethyl-4-(4-fluorophenyl)-6-oxo-1-phenyl-4,5,6,7-tetrahydro-1H-pyrazolo[3,4-b]pyridin-5-yl)-3-(trifluoromethyl)benzamide]: in data set [1], the kinact/KI was 83300 M⁻¹ s⁻¹, the Ki was 0.0464 µM and the kinact was 0.00384 s⁻¹. Besides, the Category entry in data set [2] is on record as “irreversible covalent”.
Turning to `CCN1C(=O)[C@@H](NC(=O)c2cccc(C(F)(F)F)c2)[C@@H](C2CC2)c2c(C(=O)N3CCS(=O)(=O)C[C@H]3C#N)nn(C3CCOCC3)c21` (mixture of isomers) [Compound I-379], in data set [2], the Category result is on record as “reversible covalent”, the residence time is 78.9 min, the koff was 0.000211 s⁻¹ and the half-life is 0.9115 h.
On to `CCN1C(=O)[C@@H](NC(=O)c2cccc(C(F)(F)F)c2)[C@@H](C2CC2)c2c(C(=O)N3[C@H](C#N)C[C@H]4C[C@H]43)nn(C3CCOCC3)c21` [Compound I-256, N-((4S,5S)-3-((1R,3S,5R)-3-cyano-2-azabicyclo[3.1.0]hexane-2-carbonyl)-4-cyclopropyl-7-ethyl-6-oxo-1-(tetrahydro-2H-pyran-4-yl)-4,5,6,7-tetrahydro-1H-pyrazolo[3,4-b]pyridin-5-yl)-3-(trifluoromethyl)benzamide], for which, in data set [1], the kinact/KI was 78300 M⁻¹ s⁻¹, the Ki is 0.0994 µM and the kinact is 0.00783 s⁻¹. Also, in data set [2], the Category entry is on record as “slow reversible”, the residence time is 219 min, the koff was 7.96e-05 s⁻¹ and the half-life is 2.535 h.
Turning to `CCN1C(=O)[C@@H](NC(=O)c2cccc(C(F)(F)F)c2)[C@@H](C2CC2)c2c(C(=O)N3CCNC[C@H]3C#N)nn(-c3ccccc3)c21` [Compound I-383], in data set [1], the kinact/KI is 48300 M⁻¹ s⁻¹, the Ki came to 0.0958 µM and the kinact was 0.00465 s⁻¹. In addition, the Category result in data set [2] is “irreversible covalent”.
Take `CCN1C(=O)[C@@H](NC(=O)c2cccc(C(F)(F)F)c2)[C@@H](c2ccc(F)cc2)c2c(C(=O)N(C)[C@@H](C#N)CCN(C)C)nn(C3CCOCC3)c21` [Compound I-369]: in data set [1], the kinact/KI is 11700 M⁻¹ s⁻¹, the Ki was found to be 0.002 µM and the kinact is 2.17e-05 s⁻¹. Further, in data set [2], the Category result was “fast reversible”, the residence time worked out at 39.4 min, the koff was 0.000425 s⁻¹ and the half-life is 0.455 h.
As to `CCN1C(=O)[C@@H](NC(=O)c2cccc(C(F)(F)F)c2)[C@@H](C2CC2)c2c(C(=O)N3CCNC[C@H]3C#N)nn(C3CCOCC3)c21` [Compound I-582], in data set [2], the Category entry is “irreversible covalent”.
Turning to `CCN1C(=O)[C@@H](NC(=O)c2cccc(C(F)(F)F)c2)[C@@H](c2ccc(F)cc2)c2c(C(=O)N3CCC[C@H]3C#N)nn(C3CCOCC3)c21` [Compound I-350], in data set [1], the kinact/KI was 45000 M⁻¹ s⁻¹, the Ki is 0.0929 µM and the kinact was 0.00417 s⁻¹. For the same compound, in data set [2], the Category entry is recorded as “slow reversible”, the residence time was 699 min, the koff is 2.64e-05 s⁻¹ and the half-life is 8.07 h.
Regarding `CCN1C(=O)[C@@H](NC(=O)c2cccc(C(F)(F)F)c2)[C@@H](C2CC2)c2c(C(=O)N3CS(=O)(=O)C[C@H]3C#N)nn(C3CCOCC3)c21` [Compound I-617], in data set [2], the Category entry was “fast reversible”, the residence time is 66.3 min, the koff was 0.000251 s⁻¹ and the half-life turned out to be 0.7658 h.
Regarding `CCN1C(=O)[C@@H](NC(=O)c2cccc(C(F)(F)F)c2)[C@@H](C)c2c(C(=O)N3[C@H](C#N)C[C@H]4C[C@H]43)nn(C3CCOCC3)c21` [Compound I-387], in data set [1], the kinact/KI is 46700 M⁻¹ s⁻¹, the Ki came to 0.157 µM and the kinact was 0.00727 s⁻¹. Moreover, in data set [2], the Category result is reported as “reversible covalent”, the residence time came to 144 min, the koff was 0.000116 s⁻¹ and the half-life is 1.67 h.
On to `CCN1C(=O)[C@@H](NC(=O)c2cccc(C(F)(F)F)c2)[C@@H](C2CC2)c2c(C(=O)N3C[C@H](F)C[C@H]3C#N)nn(C3CCOCC3)c21` [Compound I-372], for which, in data set [1], the kinact/KI was 13300 M⁻¹ s⁻¹, the Ki was 0.229 µM and the kinact is 0.00313 s⁻¹.
